Where only a bound is given, the exact number is not on record here.

As usually defined, the IC50 is the midpoint of a concentration-inhibition curve. Higher therefore signals weaker potency in that assay.

What all share (assay type): cell-based
Experiment [1] has as its target T1, human TLR7 (Homo sapiens, UniProt Q9NYK1).
T1 construct: host or cells: HEK-Blue cells (HEK293-derived reporter line)
T1 sequence (Q9NYK1 27-1049): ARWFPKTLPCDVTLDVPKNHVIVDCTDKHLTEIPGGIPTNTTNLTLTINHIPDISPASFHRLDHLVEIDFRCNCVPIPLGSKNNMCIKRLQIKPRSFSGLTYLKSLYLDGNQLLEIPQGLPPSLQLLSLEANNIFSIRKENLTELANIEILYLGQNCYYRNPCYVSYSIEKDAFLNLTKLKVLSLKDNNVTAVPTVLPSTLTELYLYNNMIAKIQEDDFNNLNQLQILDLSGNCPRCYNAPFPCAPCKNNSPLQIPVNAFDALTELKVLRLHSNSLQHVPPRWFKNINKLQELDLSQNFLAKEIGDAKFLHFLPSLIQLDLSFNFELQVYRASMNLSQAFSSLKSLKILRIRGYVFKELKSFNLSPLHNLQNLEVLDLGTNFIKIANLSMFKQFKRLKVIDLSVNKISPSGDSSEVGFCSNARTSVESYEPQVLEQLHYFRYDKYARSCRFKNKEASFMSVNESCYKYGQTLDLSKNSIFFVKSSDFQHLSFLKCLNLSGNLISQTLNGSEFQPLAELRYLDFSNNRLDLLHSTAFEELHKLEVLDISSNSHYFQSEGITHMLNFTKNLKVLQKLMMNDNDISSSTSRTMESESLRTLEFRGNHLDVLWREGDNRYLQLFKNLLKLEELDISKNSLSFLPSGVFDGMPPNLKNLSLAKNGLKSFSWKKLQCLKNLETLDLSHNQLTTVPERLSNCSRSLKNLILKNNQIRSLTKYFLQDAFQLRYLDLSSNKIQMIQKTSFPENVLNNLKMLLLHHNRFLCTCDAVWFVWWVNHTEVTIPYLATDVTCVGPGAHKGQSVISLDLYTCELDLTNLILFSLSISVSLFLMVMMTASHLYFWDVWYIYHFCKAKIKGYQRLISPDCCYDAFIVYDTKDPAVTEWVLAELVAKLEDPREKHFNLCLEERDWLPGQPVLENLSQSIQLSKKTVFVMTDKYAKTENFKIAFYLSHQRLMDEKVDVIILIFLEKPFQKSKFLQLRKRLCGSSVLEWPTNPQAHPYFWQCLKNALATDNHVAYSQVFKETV
The experiment in a line: TLR7/8/9 Inhibition Reporter Assays (TLR7). The following applies: HEK-Blue cells overexpressing human TLR7, SEAP reporter, stimulated with TLR7 ligand gardiquimod. The essentials: (§1)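 HEK-Blue cells overexpressing human TLR7, TLR8 or TLR9 with NF-κB/AP-1-driven SEAP reporter, pre-treated 60 min with compound ([…]). Stimulated with […] (TLR7), […] (TLR8) or ODN2006 200 nM (TLR9), then 22 h at 37° C; SEAP measured, % inhibition relative to agonist-plus-DMSO and known-inhibitor wells.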
For orientation: In a reporter assay the amount or activity of a reporter protein is the signal.

For experiment [2], the target named is T2, human TLR8 (Homo sapiens, UniProt Q9NR97).
T2 construct: host or cells: HEK-Blue cells (HEK293-derived reporter line)
T2 sequence (Q9NR97 27-1041): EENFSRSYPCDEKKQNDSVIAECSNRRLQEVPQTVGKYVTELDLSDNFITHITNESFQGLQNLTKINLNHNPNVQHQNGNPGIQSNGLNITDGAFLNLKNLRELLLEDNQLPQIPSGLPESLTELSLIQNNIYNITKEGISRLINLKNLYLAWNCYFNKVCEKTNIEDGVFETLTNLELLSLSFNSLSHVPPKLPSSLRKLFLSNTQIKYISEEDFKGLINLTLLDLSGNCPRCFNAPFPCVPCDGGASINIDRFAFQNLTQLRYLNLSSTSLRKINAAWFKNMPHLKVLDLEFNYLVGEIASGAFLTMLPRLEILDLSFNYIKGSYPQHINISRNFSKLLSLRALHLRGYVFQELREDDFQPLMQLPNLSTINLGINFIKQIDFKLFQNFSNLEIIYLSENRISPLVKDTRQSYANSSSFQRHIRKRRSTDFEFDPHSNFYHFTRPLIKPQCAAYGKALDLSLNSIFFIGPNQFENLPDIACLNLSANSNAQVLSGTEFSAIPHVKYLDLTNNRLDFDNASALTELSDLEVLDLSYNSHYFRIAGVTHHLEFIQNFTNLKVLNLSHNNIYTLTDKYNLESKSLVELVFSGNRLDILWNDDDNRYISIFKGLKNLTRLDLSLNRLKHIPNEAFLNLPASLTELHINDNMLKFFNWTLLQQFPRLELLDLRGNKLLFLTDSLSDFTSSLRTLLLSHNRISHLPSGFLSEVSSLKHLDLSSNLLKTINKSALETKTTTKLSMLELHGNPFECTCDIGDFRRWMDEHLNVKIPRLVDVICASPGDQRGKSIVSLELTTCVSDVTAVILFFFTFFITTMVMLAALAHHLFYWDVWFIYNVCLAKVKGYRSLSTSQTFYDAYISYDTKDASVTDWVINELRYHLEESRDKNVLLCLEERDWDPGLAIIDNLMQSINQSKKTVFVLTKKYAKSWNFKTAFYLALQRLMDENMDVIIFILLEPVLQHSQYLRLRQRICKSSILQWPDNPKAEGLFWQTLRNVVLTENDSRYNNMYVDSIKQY
In words: TLR7/8/9 Inhibition Reporter Assays (TLR8). The following applies: HEK-Blue cells overexpressing human TLR8, SEAP reporter, stimulated with TLR8 ligand R848. The essentials:
as §1

Experiment [3] deals with T3, human TLR9 (Homo sapiens, UniProt Q9NR96).
T3 construct: host or cells: HEK-Blue cells (HEK293-derived reporter line)
T3 sequence (Q9NR96 26-1032): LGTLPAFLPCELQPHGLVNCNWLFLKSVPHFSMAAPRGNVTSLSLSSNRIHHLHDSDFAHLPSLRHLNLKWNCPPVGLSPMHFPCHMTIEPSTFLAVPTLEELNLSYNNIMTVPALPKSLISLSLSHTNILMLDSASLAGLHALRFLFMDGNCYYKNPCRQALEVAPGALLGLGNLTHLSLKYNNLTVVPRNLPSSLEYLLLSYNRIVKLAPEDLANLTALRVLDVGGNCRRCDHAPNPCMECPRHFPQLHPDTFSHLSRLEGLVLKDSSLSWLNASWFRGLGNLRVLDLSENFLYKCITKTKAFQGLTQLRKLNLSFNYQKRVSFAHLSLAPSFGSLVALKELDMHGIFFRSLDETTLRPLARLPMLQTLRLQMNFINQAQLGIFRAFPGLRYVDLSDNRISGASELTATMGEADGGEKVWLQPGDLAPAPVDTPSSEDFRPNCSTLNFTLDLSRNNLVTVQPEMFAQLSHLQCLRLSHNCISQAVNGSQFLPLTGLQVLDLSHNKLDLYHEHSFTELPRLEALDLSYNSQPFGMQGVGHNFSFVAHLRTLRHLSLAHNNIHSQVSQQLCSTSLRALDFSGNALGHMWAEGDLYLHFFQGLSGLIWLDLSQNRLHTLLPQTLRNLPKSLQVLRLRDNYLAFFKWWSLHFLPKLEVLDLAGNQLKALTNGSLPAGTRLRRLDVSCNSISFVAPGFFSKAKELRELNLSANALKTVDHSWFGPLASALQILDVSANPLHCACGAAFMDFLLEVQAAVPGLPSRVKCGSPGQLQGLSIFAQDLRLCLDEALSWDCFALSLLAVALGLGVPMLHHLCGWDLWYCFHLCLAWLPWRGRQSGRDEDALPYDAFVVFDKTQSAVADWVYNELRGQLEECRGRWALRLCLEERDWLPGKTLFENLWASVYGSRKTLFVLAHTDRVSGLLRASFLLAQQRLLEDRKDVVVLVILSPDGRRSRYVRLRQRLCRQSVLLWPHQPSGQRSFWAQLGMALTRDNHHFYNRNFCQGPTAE
The experiment in a line: TLR7/8/9 Inhibition Reporter Assays (TLR9). The note with it: HEK-Blue cells overexpressing human TLR9, SEAP reporter, stimulated with TLR9 ligand ODN2006. The essentials: as §1

Consider `Cc1nc(-c2ccc(N3CCC4(CC3)CN(C(C)C)C4)cc2)cc2c1nc(-c1ccc(S(C)(=O)=O)cc1)n2C` [Example 72, 6-(4-(2-isopropyl-2,7-diazaspiro[3.5]nonan-7-yl)phenyl)-1,4-dimethyl-2-(4-(methylsulfonyl)phenyl)-1H-imidazo[4,5-c]pyridine], for which the IC50 was 650 nM in experiment [1], 6 µM in experiment [2] and 160 nM in experiment [3].
With `CC(C)N1CC2(CCN(c3ccc(-c4cc5c(cn4)nc(-c4ccc(S(C)(=O)=O)cc4)n5C)cc3)C2)C1` [Example 64, 6-(4-(2-isopropyl-2,6-diazaspiro[3.4]octan-6-yl)phenyl)-1-methyl-2-(4-(methylsulfonyl)phenyl)-1H-imidazo[4,5-c]pyridine], the 50% inhibitory concentration (IC50) was found to be 2800 nM in experiment [1], 0.79 µM in experiment [2] and 220 nM in experiment [3].
Take `CS(=O)(=O)c1ccc(-c2nc3cnc(-c4ccc(N5CCN(CCCN6CCOCC6)CC5)cc4)cc3n2C2CC2)cc1` [Example 55, 4-(3-(4-(4-(1-cyclopropyl-2-(4-(methylsulfonyl)phenyl)-1H-imidazo[4,5-c]pyridin-6-yl)phenyl)piperazin-1-yl)propyl) morpholine]: the IC50 in experiment [1] came to 2400 nM; in experiment [2] it was 0.64 µM; in experiment [3], 99 nM.
As to `Cc1nc(-c2ccc(CN3CCN(C(C)C)CC3)cc2)cc2c1nc(-c1ccc(S(C)(=O)=O)cc1)n2C` [Example 5, 6-(4-((4-isopropylpiperazin-1-yl)methyl)phenyl)-1,4-dimethyl-2-(4-(methylsulfonyl)phenyl)-1H-imidazo[4,5-c]pyridine], the half-inhibitory concentration (IC50) in experiment [1] stood at 7200 nM; in experiment [2], 22 µM; in experiment [3] it was 790 nM.
Take `COc1ccc(-c2nc3c(C)nc(-c4ccc(N5CCC6(CC5)CN(C(C)C)C6)cc4)cc3n2C)cc1OC` [Example 60, 2-(3,4-dimethoxyphenyl)-6-(4-(2-isopropyl-2,7-diazaspiro[3.5]nonan-7-yl)phenyl)-1,4-dimethyl-1H-imidazo[4,5-c]pyridine]: the IC50 in experiment [1] is 2300 nM; in experiment [2] it was 37 µM; in experiment [3] it was 140 nM.
The matching figures for `COc1cc(-c2nc3c(C)nc(-c4ccc(N5CCN(CC6CC6)CC5)cc4)cc3n2C)cn2ncnc12` [Example 11, 6-(6-(4-(4-(cyclopropylmethyl)piperazin-1-yl)phenyl)-1,4-dimethyl-1H-imidazo[4,5-c]pyridin-2-yl)-8-methoxy-[1,2,4]triazolo[1,5-a]pyridine]: 1100 nM, greater than 50 µM and 420 nM.
Consider `COc1ccc(-c2nc3c(C)nc(-c4ccc(N5CCN(C(C)C)CC5)cc4)cc3n2C)cc1OC` [Example 1, 2-(3,4-dimethoxyphenyl)-6-(4-(4-isopropylpiperazin-1-yl)phenyl)-1,4-dimethyl-1H-imidazo[4,5-c]pyridine], for which the half-maximal inhibitory concentration (IC50) in experiment [1] is 1000 nM; in experiment [2], 7.4 µM; in experiment [3] it was 220 nM.
In the same order, the values of `Cc1nc(-c2ccc(N3CCC(N4CCCC4)CC3)cc2)c(F)c2c1nc(-c1ccc(S(C)(=O)=O)cc1)n2C` [Example 44, 7-fluoro-1,4-dimethyl-2-(4-(methylsulfonyl)phenyl)-6-(4-(4-(pyrrolidin-1-yl)piperidin-1-yl)phenyl)-1H-imidazo[4,5-c]pyridine] are 7800 nM, greater than 50 µM and 2500 nM.
Consider `Cc1nc(-c2ccc(C3CCN(C4CCOCC4)CC3)cc2)cc2c1nc(-c1ccc(S(C)(=O)=O)cc1)n2C` [Example 28, 1,4-dimethyl-2-(4-(methylsulfonyl)phenyl)-6-(4-(1-(tetrahydro-2H-pyran-4-yl)piperidin-4-yl)phenyl)-1H-imidazo[4,5-c]pyridine], for which the half-maximal inhibitory concentration (IC50) in experiment [1] is 11000 nM; in experiment [2], greater than 25 µM; in experiment [3], 310 nM.
The matching figures for `Cc1nc(-c2ccc(N3C[C@@H]4CN(C(C)C)C[C@@H]4C3)cc2)cc2c1nc(-c1ccc(S(C)(=O)=O)cc1)n2C` [Example 67, 6-(4-((3aR,6aS)-5-isopropylhexahydropyrrolo[3,4-c]pyrrol-2(1H)-yl)phenyl)-1,4-dimethyl-2-(4-(methylsulfonyl)phenyl)-1H-imidazo[4,5-c]pyridine]: 1900 nM, 1.8 µM and 41 nM.
In the same order, the values of `Cc1nc(-c2ccc(N3CC4(CCN(C(C)C)CC4)C3)cc2)cc2c1nc(-c1ccc(S(C)(=O)=O)cc1)n2C` [Example 63, 6-(4-(7-isopropyl-2,7-diazaspiro[3.5]nonan-2-yl)phenyl)-1,4-dimethyl-2-(4-(methylsulfonyl)phenyl)-1H-imidazo[4,5-c]pyridine] are 1400 nM, 5.3 µM and 170 nM.

These data come from patent publication US20250163054A1, “SUBSTITUTED BICYCLIC HETEROARYL COMPOUNDS USEFUL AS INHIBITORS OF TLR9” (Bristol-Myers Squibb Company, priority 2022, published 2025).
